Entries after “also recorded” stand apart in the source; their conditions may differ.
Test system: α-tubulin deacetylation
Assay: acetylated α-tubulin in cells (AcTubulin cytoblot, immunofluorescence, Western blot)
Type: cell-based, human
Settings: for effect on tubulin deacetylation / α-tubulin acetylation in cells: A549 (also BS-C-1) cells, tubacin/JCWII114, niltubacin/JCWII153 2 μM, TSA 100 nM-4 μM, library ~2-5 μM, 18 h
Method: A549 cells were seeded at a density of 4,000 cells/50 μl in DMEM+ in white tissue culture-treated 384-well plates (Nalge Nunc) using a Multidrop 384 liquid dispenser (Labsystems). Library small molecules were pinned twice (100-150 nl/pin) from ˜1 mM stock solutions (DMSO) and incubated for 18 hours. For the ITSA1+AcTubulin assay, ITSA1 (50 μM) was added four hours after pin-transfer of library molecules. Media was aspirated with a 16-channel wand. For the acetylated α-tubulin cytoblot (AcTubulin), 40 μl/well of fixation solution (3.7% formaldehyde (1:10 from 37% stock) in Tris-buffered saline (TBS, 0.15 M NaCl, 0.02 M Tris-Cl, pH 7.4) was added and plates incubated for twenty minutes at room temperature. After aspiration, 30 μl 100% methanol (−20° C.) was added and incubated for five minutes at room temperature. After aspirating and washing three times with 90 μl of antibody dilution buffer (ADB, TBS/2% bovine serum albumin, 0.1% TritonX-100) the wells were blocked for twenty minutes in ADB. After aspirating, 20 μl/well of ADB containing anti-acetylated α-tubulin antibody (mouse; 1:1000) and anti-mouse IgG horseradish peroxidase (HRP)-conjugated antibody (1:750) was added and incubated overnight (4° C.). For the anti-acetyl lysine cytoblot (AcLysine), 40 μl/well of fixation solution (95% ethanol/5% acetic acid, −20° C.) was added and plates incubated for five minutes at room temperature. Wells were aspirated, washed, and blocked in ADB as for the AcTubulin protocol. After aspirating, 20 μl/well of ADB containing anti-acetylated lysine (rabbit; 1:375) and anti-rabbit IgG-HRP conjugated antibody (1:750) was added and incubated overnight (4° C.). For the anti-acetylated histone H3 (AcHistH3) and anti-acetylated histone H4 (AcHistH4) cytoblots, cells were fixed, washed, and blocked in ADB as for the AcLysine cytoblot. After aspirating, 20 μl/well of ADB containing anti-acetylated histone H3 antibody (rabbit, 1:500) or anti-acetylated histone H4 antibody (rabbit, 1:500) was added and incubated for two hours at room temperature. Wells were aspirated and washed twice with 80 μl of ADB. After aspirating, 20 μl/well of ADB containing anti-rabbit IgG-HRP conjugated antibody (1:1000) was added and incubated for two hours (room temperature). For the AcTubulin and AcLysine assays, plates were washed three times with TBS before adding 20 μl/well of enhanced chemiluminescent (ECL) mixture. For the AcHistH3 and AcHistH4 assays, plates were washed three times with 80 μl TBS with 1% Triton X-100 and once with 80 μl TBS before adding 20 μl/well of ECL mixture. Plates were read on an Analyst plate reader (LJL Biosystems) with an integration time of 0.1 seconds.
1,3-dioxanes from single polystyrene macrobeads were prepared as 1-2 mM stock solutions in DMSO as described [Hubbert, C., Guardiola, A., Shao, R., Kawaguchi, Y., Ito, A., Nixon, A., Yoshida, M., Wang, X. F., and Yao, T. P. (2002). HDAC6 is a microtubule-associated deacetylase. Nature 417, 455-458]. Bead decoding and structure determination were as described [See for example, Hubbert, C., Guardiola, A., Shao, R., Kawaguchi, Y., Ito, A., Nixon, A., Yoshida, M., Wang, X. F., and Yao, T. P. (2002). HDAC6 is a microtubule-associated deacetylase. Nature 417, 455-458; and Piperno, G., LeDizet, M., and Chang, X. J. (1987). Microtubules containing acetylated alpha-tubulin in mammalian cells in culture. J. Cell Biol. 104, 289-302]. Small molecules (˜2-5 μM) of interest were retested using a sample from the plate of stock solutions by fluorescence microscopy and comparison to the effects of trichostatin (300 nM to 1 μM).
A549 cells were seeded at a density of 50,000/200 μl in DMEM+ on the surface of glass coverslips on top of Parafilm in a 10 cm dish and allowed to attach overnight. For detection of acetylated α-tubulin, cells were permeabilized and fixed with 100 mM K-PIPES, pH 6.8, 10 mM EGTA, 1 mM MgCl2, 0.2% triton X-100, 0.2% glutaraldehyde for fifteen minutes. […]

SMILES | effect on tubulin deacetylation / α-tubulin acetylation in cells | effect on tubulin deacetylation / α-tubulin acetylation in cells (listed as 415 N3) | effect on tubulin deacetylation / α-tubulin acetylation in cells (listed as JCWII114) | concentration at which α-tubulin acetylation is increased (A549 cells, 4 h, data not shown) [nM]
CC(/C=C/C(=O)NO)=C\[C@@H](C)C(=O)c1ccc(N(C)C)cc1 [TSA, trichostatin A, reference compound] | an inhibitor of both α-tubulin and histone deacetylation; also recorded: Increased α-tubulin acetylation upon TSA (4 μM) treatment (24 h) | – | – | –
O=C(CCCCCCC(=O)Nc1ccc([C@@H]2OC(c3ccc(CO)cc3)C[C@H](CSc3nc(-c4ccccc4)c(-c4ccccc4)o3)O2)cc1)NO (some centres unmarked) [tubacin] | Increased acetylated α-tubulin induced by tubacin; also recorded: Reversibility of tubacin-induced (2 μM; 5 h) α-tubulin acetylation; also recorded: strongly increased α-tubulin acetylation levels; also recorded: potent (FIG. 41E), selective (FIG. 41F; FIG. 46A), and reversible (FIG. 46B) inhibitor of α-tubulin deacetylation; also recorded: always increased α-tubulin acetylation levels | strongly increased α-tubulin acetylation | potently and selectively inhibited tubulin deacetylation | ≥ 125

Reference: patent US8178579B2, “Dioxanes and uses thereof” (President and Fellows of Harvard College, priority 2001, dated 2012)
